# From patent publication US5534416A, “Fluorescent viability assay using cyclic-substituted unsymmetrical cyanine dyes” (Molecular Probes, Inc., priority 1993, dated 1996)
# Where two headings read alike, the source gives them in different places.
# How the values were obtained:
# [1] = system: B. cereus; assay: Fluorescence per cell, stained bacteria (microtiter plate reader); type: cell-based, Bacillus cereus; details: optimal dye concentration, corrected for cell number
# Protocol: (§1) 1. Measured in a fluorescence microtiter plate reader with extraction and
# (§2) emission filters at 485+/-10 and 530+/-12, respectively. Fluorescence dat
# (§3) are corrected for cell number; but are not corrected for cell volume or
# (§4) 2. Optimal dye concentrations determined as in Example 3.
# (§5) 3. Suspension concentrations as used for Example 3.
# (§6) A culture of E. coli is washed by centrifugation and resuspended in water to its original volume. Using Corning 96-well microtiter plates with flat bottoms, 150 μL volumes of suspension are loaded per well. A single well of sterile water is the well background standard. Using a Dynatech MR600 microplate reader equipped with a 410 nm filter, absorbance is determined for the initial volumes of suspension. The suspension is diluted seven times by serial ten-fold dilutions in water, 150 μL of suspension per well, and the absorbance measured for each dilution. Following the absorbance measurements, each dilution loaded into wells is further diluted 1:10 and plated in duplicate on nutrient growth agar. The colonies are counted and expressed as colony forming units per milliliter (cfu/mL). Using the turbidity of the dilution in the microtiter plate, the suspension is diluted to a density of about 1×10^9 cfu/mL.
# (§7) The bacteria suspension, adjusted to a known density as described above, is diluted seven times by serial ten-fold dilutions in water; 150 μL of suspension per well. Three-fold serial dilutions of dye are used (30-0.04 μM); 50 μL of dye at 4× final concentration. Using Corning 96-well microtiter flat-bottom plates, a matrix is set up whereby the cell concentration decreases across the plate and the dye concentration decreases down the plate, final volume per well is 200 μL. The top row and first column are reserved for the control, sterile water. The plate is incubated at 37° C. for 30 minutes, then read in a Millipore Cytofluor™ 2350 96-well fluorescence microplate reader at a fixed excitation of 485+/-10 nm and each of three emission wavelengths, 530+/-12, 620+/-20, or 645+/-20 nm. The results determine the best dye range (30-1 μM) and the best cell concentrations (concentrated through first three ten-fold dilutions) for optimal dye loading. […] Using the four dye dilutions and the four bacterial dilutions, many bacteria and dyes can be assayed quickly. The data collected allow the determination of optimal dye and cell concentration required for maximal fluorescence intensity per cell.
# [2] = system: M. luteus; assay: as above; type: cell-based, Micrococcus luteus; details: optimal dye concentration, corrected for cell number
# Protocol: as §1, §2, §3, §4, §5, §6, §7
# [3] = system: S. pyogenes; assay: as above; type: cell-based, Streptococcus pyogenes; details: optimal dye concentration, corrected for cell number
# Protocol: as §1, §2, §3, §4, §5, §6, §7
# [4] = system: S. aureus; assay: as above; type: cell-based, Staphylococcus aureus; details: for Fluorescence/Cell (ex 485/em 530): S. aureus, optimal dye concentration, corrected for cell number; for Normalized Fluorescence/cell (ex 485 nm/em 530 nm), Staphylococcus aureus: scaled to thiazole orange
# From the text: as §1, §2, §3, §4, §5
# (§8) Factors such as degree of fluorescence enhancement with nucleic acid binding, self quenching, molar extinction coefficient, membrane permeability, intracellular partitioning, nucleic acid binding affinity, and quantum yield contribute to the overall fluorescence of nucleic acid stains in cells. Enhanced cell fluorescence obtained with Dye I is related to unexpected properties other than quantum yield alone. Quantum yield is determined as described above (foot note to Table 2). Normalized quantum yield is determined to illustrate the fold-change in quantum yield of Dye I compared with thiazole orange, a related cell-permeant dye. The normalized fluorescence values represent the quantum yield of each dye divided by the quantum yield of thiazole orange. Fluorescence per cell is also scaled to thiazole orange values for both E. coli and S. aureus to allow direct comparison between relative (normalized) quantum yield and relative (normalized) fluorescence/cell.
# as §6, §7
# [5] = system: E. coli; assay: as above; type: cell-based, Escherichia coli; details: for Fluorescence/Cell (ex 485/em 530): E. coli, optimal dye concentration, corrected for cell number; for Normalized Fluorescence/cell (ex 485 nm/em 530 nm), Escherichia coli: scaled to thiazole orange
# From the text: as §1, §2, §3, §4, §5, §8, §6, §7
# [6] = system: S. oranienburg; assay: as above; type: cell-based, Salmonella oranienburg; details: optimal dye concentration, corrected for cell number
# Protocol: as §1, §2, §3, §4, §5, §6, §7
# [7] = system: K. pneumonia; assay: as above; type: cell-based, Klebsiella pneumonia; details: optimal dye concentration, corrected for cell number
# Protocol: as §1, §2, §3, §4, §5, §6, §7
# [8] = system: S. sonnei; assay: as above; type: cell-based, Shigella sonnei; details: optimal dye concentration, corrected for cell number
# Protocol: as §1, §2, §3, §4, §5, §6, §7
# [9] = system: P. aeruginosa; assay: as above; type: cell-based, Pseudomonas aeruginosa; details: optimal dye concentration, corrected for cell number
# Protocol: as §1, §2, §3, §4, §5, §6, §7
# [10] = system: nucleic acids; assay: Excitation/emission maxima of dyes complexed with nucleic acids; type: physicochemical; set-up: key: wavelength in nm; details: Table 2; dye complexed with nucleic acids
# From the text: Dye I is lightly colored and is virtually non-fluorescent when diluted in aqueous solution according to the method of the invention. Dye I is highly membrane-permeant and labels all cells, whether live or dead. When Dye I binds with intracellular nucleic acid polymers such as DNA and RNA, the resultant dye-nucleic acid complex becomes extremely fluorescent upon illumination. The quantum yield of the preferred Dye I/DNA complex is greater than 0.02, typically greater than 0.1, preferably greater than 0.2, and more preferably greater than 0.3. Typically, Dye I combines with intracellular nucleic acids to give a green or red fluorescence. When excited at a wavelength between about 300 nm and about 500 nm, the dyes complexed with nucleic acids have an emission maximum between about 500 and about 610 nm (see Table 2). Preferably, Dye I complexed with nucleic acids has an emission maximum of between about 500 nm and about 535 nm, resulting in a true green fluorescent signal in cells of the sample where Dye I is present alone.
# [11] = system: DNA; assay: Quantum yield of dye on DNA versus fluorescein; type: physicochemical; details: for Normalized QY: QY divided by QY of thiazole orange; for QY (DNA): Table 2, Tris buffered saline pH 10, fluorescein assumed 0.92; for QY: Table 7, on DNA, fluorescein reference
# From the text: ^ Quantum yield (QY) of dye on DNA (standard solution in Tris buffere
# saline adjusted to pH 10) in comparison with fluorescein, which is assume
# to have a quantum yield of 0.92 under the test conditions.
# as §8
# [12] = system: intact cells; details: cited from earlier work; for Loading / Retention / pH sensitivity: in words
# [13] = system: calf thymus DNA; details: Table 5; bound to excess calf thymus DNA (50 bp/dye); cited from earlier work
# [14] = "probably", temperature not stated
molecule,measurement,setting,value
CCCCCCN1C=CC(=Cc2sc3ccccc3[n+]2C)c2ccccc21 [compound 634],Fluorescence/Cell (ex 485/em 530),[1],154
same,Fluorescence/Cell (ex 485/em 530),[2],58
same,Fluorescence/Cell (ex 485/em 530),[3],0.03
same,Fluorescence/Cell (ex 485/em 530),[4],15
same,"Normalized Fluorescence/cell (ex 485 nm/em 530 nm), Staphylococcus aureus",[4],4.7
same,Fluorescence/Cell (ex 485/em 530),[5],4
same,"Normalized Fluorescence/cell (ex 485 nm/em 530 nm), Escherichia coli",[5],2
same,Fluorescence/Cell (ex 485/em 530),[6],5
same,Fluorescence/Cell (ex 485/em 530),[7],4
same,Fluorescence/Cell (ex 485/em 530),[8],4
same,Fluorescence/Cell (ex 485/em 530),[9],3
same,EM max,[10],530
same,EX max,[10],510
same,Normalized QY,[11],1.0
same,QY (DNA),[11],0.18
same,QY,[11],0.18
Sulfofluorescein diacetate,Loading,[12],More difficult
same,Retention,[12],better
COC1=CC(=Cc2sc3ccccc3[n+]2C)c2ccccc2N1c1ccccc1 [compound 628],Fluorescence/Cell (ex 485/em 530),[1],613
same,Fluorescence/Cell (ex 485/em 530),[2],149
same,Fluorescence/Cell (ex 485/em 530),[3],0.04
same,Fluorescence/Cell (ex 485/em 530),[4],34
same,"Normalized Fluorescence/cell (ex 485 nm/em 530 nm), Staphylococcus aureus",[4],10.6
same,Fluorescence/Cell (ex 485/em 530),[5],28
same,"Normalized Fluorescence/cell (ex 485 nm/em 530 nm), Escherichia coli",[5],14
same,Fluorescence/Cell (ex 485/em 530),[6],19
same,Fluorescence/Cell (ex 485/em 530),[7],20
same,Fluorescence/Cell (ex 485/em 530),[8],16
same,Fluorescence/Cell (ex 485/em 530),[9],14
same,EM max,[10],506
same,EX max,[10],488
same,Normalized QY,[11],2.2
same,QY (DNA),[11],0.40
same,QY,[11],0.40
"5-(and-6)-Carboxy-2',7'-dichloro-fluorescein diacetate",pH sensitivity,[12],Lower pH-
CCCCC1=CC(=Cc2oc3ccccc3[n+]2C)c2ccccc2N1c1ccccc1 [compound 624],Fluorescence/Cell (ex 485/em 530),[1],709
same,Fluorescence/Cell (ex 485/em 530),[2],162
same,Fluorescence/Cell (ex 485/em 530),[3],0.05
same,Fluorescence/Cell (ex 485/em 530),[4],44
same,"Normalized Fluorescence/cell (ex 485 nm/em 530 nm), Staphylococcus aureus",[4],13.8
same,Fluorescence/Cell (ex 485/em 530),[5],24
same,"Normalized Fluorescence/cell (ex 485 nm/em 530 nm), Escherichia coli",[5],12
same,Fluorescence/Cell (ex 485/em 530),[6],15
same,Fluorescence/Cell (ex 485/em 530),[7],17
same,Fluorescence/Cell (ex 485/em 530),[8],11
same,Fluorescence/Cell (ex 485/em 530),[9],14
same,EM max,[10],501
same,EX max,[10],480
same,Normalized QY,[11],3.2
same,QY (DNA),[11],0.58
same,QY,[11],0.58
O=C(O)c1ccccc1C1c2cc(Cl)c(O)cc2Oc2cc(O)c(Cl)cc21 [H2 DCF],Retention,[12],poor retention
same,pH sensitivity,[12],pH-insensitive
C[n+]1c(C=C2C=CN(CCC[N+](C)(C)C)C=C2)sc2ccccc21 [BO-PRO-1],EM max,[13],481 nm
same,EX max,[13],462 nm
Carboxyfluorescein diacetate,T1/2 (time for half of dye to leak from intact cells),[12]; 37° C.,< 30 min
same,Retention,[12],Moderate
same,pH sensitivity,[12],sensitive
CC(=O)OCOC(=O)CN(CC(=O)OCOC(C)=O)Cc1c(O)ccc2c(C)cc(=O)oc12 [Calcein Blue AM],T1/2 (time for half of dye to leak from intact cells),[12]; [14],< 15 min
same,Loading,[12],Easily loaded
C[n+]1c(C=C2C=CN(CCC[N+](C)(C)C)C=C2)oc2ccccc21 [PO-PRO-1],EM max,[13],455 nm
same,EX max,[13],435 nm
C[n+]1c(C=C2C=CN(CCC[N+](C)(C)C)c3ccccc32)oc2ccccc21 [YO-PRO-1],EM max,[13],509 nm
same,EX max,[13],491 nm
C[n+]1c(C=CC=C2C=CN(CCC[N+](C)(C)CCC[N+](C)(C)CCCN3C=CC(=CC=Cc4sc5ccccc5[n+]4C)C=C3)C=C2)sc2ccccc21 [BOBO-3],EM max,[13],602 nm
same,EX max,[13],570 nm
Carboxynaphtho-fluorescein diacetate,pH sensitivity,[12],sensitive
CC[N+](C)(CC)CCC[n+]1c(-c2ccccc2)c2cc(N)ccc2c2ccc(N)cc21 [Propidium iodide],EM max,[13],617 nm
same,EX max,[13],536 nm
C[n+]1c(C=C2C=CN(CCC[N+](C)(C)CCC[N+](C)(C)CCCN3C=CC(=Cc4oc5ccccc5[n+]4C)c4ccccc43)c3ccccc32)oc2ccccc21 [YOYO-1],EM max,[13],509 nm
same,EX max,[13],491 nm
Carboxycalcein Blue AM,T1/2 (time for half of dye to leak from intact cells),[12]; [14],< 60 min
same,Loading,[12],Easily loaded
CC(=O)OCOC(=O)c1ccc2c(c1)C(=O)OC21c2ccc(OC(C)=O)cc2Oc2cc(OC(C)=O)ccc21 [5-Carboxyfluorescein diacetate AM],T1/2 (time for half of dye to leak from intact cells),[12]; 37° C.,< 30 min
same,Loading,[12],readily loaded
same,Retention,[12],Moderate
CC(=O)Oc1ccc2c(c1)Oc1cc(OC(C)=O)ccc1C21OC(=O)c2ccccc21 [Fluorescein diacetate],T1/2 (time for half of dye to leak from intact cells),[12]; 37° C.,< 10 min
same,Loading,[12],Easily loaded
same,Retention,[12],poorly retained
C[n+]1c(C=CC=C2C=CN(CCC[N+](C)(C)C)c3ccccc32)sc2ccccc21 [TO-PRO-3],EM max,[13],661 nm
same,EX max,[13],642 nm
CC[n+]1c(-c2ccccc2)c2cc(N)ccc2c2ccc(N)cc21 [Ethidium bromide],EM max,[13],595 nm
same,EX max,[13],510 nm
C[n+]1c(C=CC=C2C=CN(CCC[N+](C)(C)CCC[N+](C)(C)CCCN3C=CC(=CC=Cc4oc5ccccc5[n+]4C)C=C3)C=C2)oc2ccccc21 [POPO-3],EM max,[13],570 nm
same,EX max,[13],534 nm
C[n+]1c(C=C2C=CN(CCC[N+](C)(C)C)c3ccccc32)sc2ccccc21 [TO-PRO-1],EM max,[13],531 nm
same,EX max,[13],515 nm
